Data as given in patent US20110160196A1, “FACTOR XA INHIBITORS” (Millennium Pharmaceuticals, Inc., priority 2007, published 2011).
pIC50: −log10 of the molar value.

biological target: T1, human plasma protein factor Xa (Homo sapiens, UniProt P00742); assay: Factor Xa IC50 determination (cleavage of paranitroanilide substrate S-2765); type: biochemical; details: factor Xa 1 nM, S-2765 100 μM, Tris buffered saline pH 7.4, read at 405 nm
T1 construct: The human plasma protein factor Xa was purchased; purchased Haematologic Technologies (Essex Junction, Vt.); host or cells: human plasma
Text: This example illustrates methods for evaluating the compounds of the invention, along with results obtained for such assays. The in vitro and in vivo human Factor Xa activities of the inventive compounds can be determined by various procedures known in the art, such as a test for their ability to inhibit the activity of human plasma Factor Xa. […] The IC50 value is the concentration (in nM) of the compound required to provide 50% inhibition of human Factor Xa proteolytic activity.
An in vitro assay for detecting and measuring inhibition activity against Factor Xa is as follows:
The substrate S-2765 (Z-D-Arg-Gly-Arg-pNA.HCl) was obtained from Diapharma (West Chester, Ohio).
The human plasma protein factor Xa was purchased from Haematologic Technologies (Essex Junction, Vt.).
All assays, which are performed in 96-well microtiter plates, measure proteolytic activity of the enzyme (factor Xa) by following cleavage of a paranitroanilide peptide substrate. The assay buffer used for proteolytic assays was Tris buffered saline (20 mM Tris, 150 mM NaCl, 5 mM CaCl2, 0.1% Bovine serum albumin (BSA), 5% Dimethly Sulfoxide (DMSO) pH 7.4). In a 96-well microtiter plate, inhibitor was serially diluted to give a range of final concentrations from 0.01 nM to 10 μM. Duplicate sets of wells were assayed and control wells without inhibitor were included. Enzyme was added to each well, (factor Xa concentration=1 nM), the plate was shaken for 5 seconds and then incubated for 5 minutes at room temperature. S-2765 was added (100 μM final) and the plate was shaken for 5 seconds (final volume in each well was 200 μl). The degree of substrate hydrolysis was measured at 405 nm on a Thermomax plate reader (Molecular Devices, Sunnyvale, Calif.) for 2 minutes. The initial velocities of substrate cleavage (mOD/min), for each range of inhibitor concentrations, were fitted to a four parameter equation using Softmax data analysis software. The parameter C, derived from the resulting curve-fit, corresponded to the concentration for half maximal inhibition (IC50).

T1 sequence (P00742 235-488 limits assumed): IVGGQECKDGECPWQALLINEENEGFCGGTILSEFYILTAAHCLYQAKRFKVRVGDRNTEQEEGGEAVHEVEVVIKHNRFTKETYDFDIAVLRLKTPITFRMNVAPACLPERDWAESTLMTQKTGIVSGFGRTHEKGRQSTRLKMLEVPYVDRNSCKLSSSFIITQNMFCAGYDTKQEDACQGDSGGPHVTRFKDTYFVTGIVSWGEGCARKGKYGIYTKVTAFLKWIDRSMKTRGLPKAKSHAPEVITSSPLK
T1 sequence (P00742 41-179 partner limits assumed): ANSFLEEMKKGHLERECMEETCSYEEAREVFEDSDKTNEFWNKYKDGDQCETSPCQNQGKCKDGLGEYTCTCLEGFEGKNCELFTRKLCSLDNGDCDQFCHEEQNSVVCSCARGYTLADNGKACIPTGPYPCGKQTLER

| pIC50 | SMILES |
| --- | --- |
| ≥ 7.00 | CN(C)Cc1cc(-n2ccccc2=O)ccc1-n1cc(CNC(=O)c2ccc(Cl)s2)nn1 [Compound 121, 5-Chloro-N-((1-(2-((dimethylamino)methyl)-4-(2-oxopyridin-1(2H)-yl)phenyl)-1H-1,2,3-triazol-4-yl)methyl)thiophene-2-carboxamide] |
| ≥ 7.00 | O=C(NCc1cn(-c2ccc(-n3ccccc3=O)cc2Oc2cccnc2)nn1)c1ccc(Cl)s1 [Compound 64, 5-Chloro-N-((1-(4-(2-oxopyridin-1(2H)-yl)-2-(pyridin-3-yloxy)phenyl)-1H-1,2,3-triazol-4-yl)methyl)thiophene-2-carboxamide] |
| ≥ 7.00 | O=C(NCc1cn(-c2ccc(-n3ccccc3=O)cc2OCCN2CCCCC2)nn1)c1ccc(Cl)s1 [Compound 89, 5-Chloro-N-((1-(4-(2-oxopyridin-1(2H)-yl)-2-(2-(piperidin-1-yl)ethoxy)phenyl)-1H-1,2,3-triazol-4-yl)methyl)thiophene-2-carboxamide] |
| ≥ 7.00 | O=C(NCc1cn(-c2ccc(-n3ccccc3=O)cc2N2CCS(=O)(=O)CC2)nn1)c1ccc(Cl)s1 [Compound 12, 5-Chloro-N-((1-(4-(2-oxopyridin-1(2H)-yl)-2-((1,1-dioxo-)thiomorpholino)phenyl)-1H-1,2,3-triazol-4-yl)methyl)thiophene-2-carboxamide] |
| ≥ 7.00 | O=C(NCc1cn(-c2ccc(-n3ccccc3=O)cc2Oc2ccccn2)nn1)c1ccc(Cl)s1 [Compound 151, 5-Chloro-N-((1-(4-(2-oxopyridin-1(2H)-yl)-2-(pyridin-2-yloxy)phenyl)-1H-1,2,3-triazol-4-yl)methyl)thiophene-2-carboxamid] |
| 6.30 to 7.00 | O=C(NCc1cn(-c2ccc(-n3ccccc3=O)cc2C(=O)N2CCC(O)CC2)nn1)c1ccc(Cl)s1 [Compound 115, 5-Chloro-N-((1-(2-(4-hydroxypiperidine-1-carbonyl)-4-(2-oxopyridin-1(2H)-yl)phenyl)-1H-1,2,3-triazol-4-yl)methyl)thiophene-2-carboxamide] |
| ≥ 7.00 | CN(C)C1CCN(c2cc(-n3ccccc3=O)ccc2-n2cc(CNC(=O)c3ccc(Cl)s3)nn2)CC1 [Compound 16, 5-Chloro-N-((1-(2-(4-(dimethylamino)piperidin-1-yl)-4-(2-oxopyridin-1(2H)-yl)phenyl)-1H-1,2,3-triazol-4-yl)methyl)thiophene-2-carboxamide] |
| ≥ 7.00 | CSc1cc(-n2ccccc2=O)ccc1-n1cc(CNC(=O)c2ccc(Cl)s2)nn1 [Compound 50, 5-Chloro-N-((1-(2-(methylthio)-4-(2-oxopyridin-1(2H)-yl)phenyl)-1H-1,2,3-triazol-4-yl)methyl)thiophene-2-carboxamide] |
| ≥ 7.00 | Cn1ccnc1COc1cc(-n2ccccc2=O)ccc1-n1cc(CNC(=O)c2ccc(Cl)s2)nn1 [Compound 176, 5-Chloro-N-((1-(2-((1-methyl-1H-imidazol-2-yl)methoxy)-4-(2-oxopyridin-1(2H)-yl)phenyl)-1H-1,2,3-triazol-4-yl)methyl)thiophene-2-carboxamide] |
| ≥ 7.00 | CN(C)C(=O)c1cc(-n2ccccc2=O)ccc1-n1cc(CNC(=O)c2ccc(Cl)s2)nn1 [Compound 103, 5-Chloro-N-((1-(2-(dimethylcarbamoyl)-4-(2-oxopyridin-1(2H)-yl)phenyl)-1H-1,2,3-triazol-4-yl)methyl)thiophene-2-carboxamide] |
| ≥ 7.00 | O=C(NCc1cn(-c2ccc(-n3ccccc3=O)cc2OCc2ncon2)nn1)c1ccc(Cl)s1 [Compound 175, N-((1-(2-((1,2,4-Oxadiazol-3-yl)methoxy)-4-(2-oxopyridin-1(2H)-yl)phenyl)-1H-1,2,3-triazol-4-yl)methyl)-5-chlorothiophene-2-carboxamide] |
| ≥ 7.00 | O=C(NCc1cn(-c2ccc(-n3ccccc3=O)cc2C(=O)NCc2nnn[nH]2)nn1)c1ccc(Cl)s1 [Compound 117, N-((1-(2-(((1H-Tetrazol-5-yl)methyl)carbamoyl)-4-(2-oxopyridin-1(2H)-yl)phenyl)-1H-1,2,3-triazol-4-yl)methyl)-5-chlorothiophene-2-carboxamide] |
| ≥ 7.00 | O=C(NCc1cn(-c2ccc(-n3ccccc3=O)cc2OCCN2CCOCC2)nn1)c1ccc(Cl)s1 [Compound 90, 5-Chloro-N-((1-(2-(2-morpholinoethoxy)-4-(2-oxopyridin-1(2H)-yl)phenyl)-1H-1,2,3-triazol-4-yl)methyl)thiophene-2-carboxamide] |
| ≥ 7.00 | O=C(NCc1cn(-c2ccc(-n3ccccc3=O)cc2OCc2nc3ccccc3[nH]2)nn1)c1ccc(Cl)s1 [Compound 173, N-((1-(2-((1H-Benzo[d]imidazol-2-yl)methoxy)-4-(2-oxopyridin-1(2H)-yl)phenyl)-1H-1,2,3-triazol-4-yl)methyl)-5-chlorothiophene-2-carboxamide] |

Continued, molecule first:

| SMILES | pIC50 |
| --- | --- |
| O=C(NCc1cn(-c2ccc(-n3ccccc3=O)cc2OCc2ccc3ccccc3n2)nn1)c1ccc(Cl)s1 [Compound 170, 5-Chloro-N-((1-(4-(2-oxopyridin-1(2H)-yl)-2-(quinolin-2-ylmethoxy)phenyl)-1H-1,2,3-triazol-4-yl)methyl)thiophene-2-carboxamide] | ≥ 7.00 |
| CN(C)CC[N+](C)(C)CCOc1cc(-n2ccccc2=O)ccc1-n1cc(CNC(=O)c2ccc(Cl)s2)nn1 [Compound 86] | ≥ 7.00 |
| NC(=O)NC1CCN(c2cc(-n3ccccc3=O)ccc2-n2cc(CNC(=O)c3ccc(Cl)s3)nn2)CC1 [Compound 20, 1-(1-(2-(4-((2-Chlorothiophene-5-carboxamido)methyl)-1H-1,2,3-triazol-1-yl)-5-(2-oxopyridin-l(2H)-yl)phenyl)piperidin-4-yl)urea] | ≥ 7.00 |
| O=C(NCc1cn(-c2ccc(-n3ccccc3=O)cc2-c2ccc(Cl)nc2)nn1)c1ccc(Cl)s1 [Compound 135, 5-Chloro-N-((1-(2-(6-chloropyridin-3-yl)-4-(2-oxopyridin-1(2H)-yl)phenyl)-1H-1,2,3-triazo1-4-yl)methyl)thiophene-2-carboxamide] | ≥ 7.00 |
| O=C1CN(C(=O)c2cc(-n3ccccc3=O)ccc2-n2cc(CNC(=O)c3ccc(Cl)s3)nn2)CCN1 [Compound 114, 5-Chloro-N-((1-(2-(2-oxopiperazine-4-carbonyl)-4-(2-oxopyridin-1(2H)-yl)phenyl)-1H-1,2,3-triazol-4-yl)methyl)thiophene-2-carboxamide] | ≥ 7.00 |
| CNc1cc(-n2ccccc2=O)ccc1-n1cc(CNC(=O)c2ccc(Cl)s2)nn1 [Compound 1, 5-Chloro-N-((1-(2-(methylamino)-4-(2-oxopyridin-1(2H)-yl)phenyl)-1H-1,2,3-triazol-4-yl)methyl)thiophene-2-carboxamide] | ≥ 7.00 |
| CN(C)c1cc(-c2cc(-n3ccccc3=O)ccc2-n2cc(CNC(=O)c3ccc(Cl)s3)nn2)ccn1 [Compound 140, 5-Chloro-N-((1-(2-(2-(dimethylamino)pyridin-4-yl)-4-(2-oxopyridin-1(2H)-yl)phenyl)-1H-1,2,3-triazol-4-yl)methyl)thiophene-2-carboxamide] | ≥ 7.00 |
| O=C(NCc1cn(-c2ccc(-n3ccccc3=O)cc2OCCCN2C(=O)c3ccccc3C2=O)nn1)c1ccc(Cl)s1 [Compound 67, 5-Chloro-N-((1-(2-(3-(1,3-dioxoisoindolin-2-yl)propoxy)-4-(2-oxopyridin-1(2H)-yl)phenyl)-1H-1,2,3-triazol-4-yl)methyl)thiophene-2-carboxamide] | ≥ 7.00 |
| O=C(NCc1cn(-c2ccc(-n3ccccc3=O)cc2N2CCCCC2)nn1)c1ccc(Cl)s1 [Compound 4, 5-Chloro-N-((1-(4-(2-oxopyridin-1(2H)-yl)-2-(piperidin-1-yl)phenyl)-1H-1,2,3-triazol-4-yl)methyl)thiophene-2-carboxamide] | ≥ 7.00 |
| NCCNC(=O)c1cc(-n2ccccc2=O)ccc1-n1cc(CNC(=O)c2ccc(Cl)s2)nn1 [Compound 107, N-((1-(2-((2-Aminoethyl)carbamoyl)-4-(2-oxopyridin-1(2H)-yl)phenyl)-1H-1,2,3-triazol-4-yl)methyl)-5-chlorothiophene-2-carboxamide] | 6.30 to 7.00 |
| O=C(NCc1cn(-c2ccc(-n3ccccc3=O)cc2-c2ccnc(F)c2)nn1)c1ccc(Cl)s1 [Compound 134, 5-Chloro-N-((1-(2-(2-fluoropyridin-4-yl)-4-(2-oxopyridin-1(2H)-yl)phenyl)-1H-1,2,3-triazol-4-yl)methyl)thiophene-2-carboxamide] | ≥ 7.00 |
| Nc1cc(-n2ccccc2=O)ccc1-n1cc(CNC(=O)c2ccc(Cl)s2)nn1 [Compound 45, N-((1-(2-Amino-4-(2-oxopyridin-1(2H)-yl)phenyl)-1H-1,2,3-triazol-4-yl)methyl)-5-chlorothiophene-2-carboxamide] | ≥ 7.00 |
| O=C(NCc1cn(-c2ccc(-n3ccccc3=O)cc2N2CCC(C(=O)O)CC2)nn1)c1ccc(Cl)s1 [Compound 24, 1-(2-(4-((2-Chlorothiophene-5-carboxamido)methyl)-1H-1,2,3-triazol-1-yl)-5-(2-oxopyridin-1(2H)-yl)phenyl)piperidine-4-carboxylic acid] | ≥ 7.00 |
